Data: patent publication US12529701B2, “Method for predicting sensitivity of cancer cell to GPX4 inhibitor” (Chugai Seiyaku Kabushiki Kaisha, priority 2019, dated 2026)

Legend:
[1] = test system: cancer cell lines shown in Table 4; assay: Test for inhibition of activity of GPX4 1 (cell growth inhibition under a GPX4 inhibitor); type: cell-based, human; details: cancer cell having a suppressed function of SMARCA4
Description: In each cancer cell line, cell growth inhibition activity under a GPX4 inhibitor was evaluated. As the GPX4 inhibitor, ML210 (CAS No: 1360705-96-9) which is a low-molecular GPX4 inhibitor reported to be a compound inhibiting the enzymatic activity of GPX4:
These compounds were each added, and each cell line was seeded at 100 μL/well so as to attain the seeding density (2) shown in Table 5 below. The cells were cultured for 7 days, the intracellular ATP which is a marker for cell survival was then measured using Cell Titer-Glo 2.0 Cell Viability Assay (manufactured by Promega Corporation), and the cell survival rate was calculated, where the intracellular ATP level in each cancer cell line given only a solvent (dimethyl sulfoxide (DMSO) or water) for the compound and cultured for 7 days was defined as 100%.

SK-HEP-1 tumor = assay: Test for drug efficacy of ML210 on SK-HEP-1 tumor-bearing mouse; type: in vivo, BALB/c-nu/nu mice; details: SK-HEP-1 tumor-bearing mice; oral, once a day, 100 mg/kg from day 11; measured days 11, 14 and 18; versus vehicle; FIG. 9
Description: For examining the efficacy of the GPX4 inhibitor on SWI/SNF complex factor-deficient cancer in vivo, a test was conducted in which ML210 was administered to mice in which SK-HEP-1 (human cancer cell line suppressing a function of SMARCA4) was transplanted (SK-HEP-1 tumor-bearing mice). […]
Subsequently, to mice (SK-HEP-1 tumor-bearing mice) for which the engraftment of the tumor (cancer cell) had been confirmed, a dosing liquid obtained by suspending ML210 at a predetermined concentration in a mixed liquid of 10% dimethyl sulfoxide (manufactured by Wako Company, product code: 043-07216), 10% Cremophor (manufactured by Sigma-Aldrich Co. LLC, product code: C5135), 15% polyethylene glycol 400 (manufactured by Wako Company, product code: 161-09065) and 15% hydroxypropyl-β-cyclodextrin (manufactured by Nihon Shokuhin Kako Co., Ltd., product code: 7585-39-9) was orally administered at a predetermined dose (20 mL/kg) once a day to a daily dosage of 100 mg/kg upon the confirmation of the implantation. The day of inoculation of SK-HEP-1 was defined as day 0, administration of ML210 was started on day 11, and the volume of the tumor was measured on days 11, 14 and 18. The minor diameter and the major diameter of the tumor were measured using an electronic caliper (manufactured by Mitutoyo Corporation, product code: CD-15AX), and the volume of the tumor was calculated by the […].

Compound	cell death and cell growth suppression [1]	volume of the tumor (SK-HEP-1 tumor)
COC(=O)c1ccc([C@H]2c3[nH]c4ccccc4c3C[C@H](C(=O)OC)N2C(=O)CCl)cc1 [RSL3]	markedly suppress cell growth	
Cc1onc(C(=O)N2CCN(C(c3ccc(Cl)cc3)c3ccc(Cl)cc3)CC2)c1[N+](=O)[O-] [ML210]	markedly suppress cell growth	an increase in volume of the tumor was suppressed as compared to the group given the vehicle
